Test results from the supplement of paper PMC10307832.

Key:
Experiment in all cases: relative viability (nuclei count vs DMSO), 5 days (fraction); higher = more cells survive
NCI-H596 = tested on: NCI-H596
Method in brief: (§1)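 After 5 days of treatment, lung cancer cells in 1536-well plates were fixed and stained in a single step (final 0.05% Triton X-100, 1% formaldehyde, 1 ug/ml Hoechst) and their nuclei counted on 4× images. Treatment had been applied by pin tool the day after seeding as one drug alone or as a fixed anchor-drug dose with five library-drug doses (not always all listed) in √10 steps. Relative viability is the nuclei count of treated wells divided by that of vehicle wells, and values are medians of duplicate plates.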

NCI-H727 = tested on: NCI-H727
Method in brief: as §1

NCI-H1792 = tested on: NCI-H1792
Method in brief: as §1

NCI-H2009 = tested on: NCI-H2009
Method in brief: as §1

NCI-H358 = tested on: NCI-H358
Method in brief: as §1

NCI-H2087 = tested on: NCI-H2087
Method in brief: as §1

NCI-H1651 = tested on: NCI-H1651
Method in brief: as §1

NCI-H1355 = tested on: NCI-H1355
Method in brief: as §1

H3255 = tested on: H3255
Method in brief: as §1

SW 1573 = tested on: SW 1573
Method in brief: as §1

NCI-H23 = tested on: NCI-H23
Method in brief: as §1

SK-MES-1 = tested on: SK-MES-1
Method in brief: as §1

NCI-H1666 = tested on: NCI-H1666
Method in brief: as §1

NCI-H1437 = tested on: NCI-H1437
Method in brief: as §1

NCI-H1793 = tested on: NCI-H1793
Method in brief: as §1

PC-14 = tested on: PC-14
Method in brief: as §1

CAL-12T = tested on: CAL-12T
Method in brief: as §1

NCI-H522 = tested on: NCI-H522
Method in brief: as §1

UMC-11 = tested on: UMC-11
Method in brief: as §1

NCI-H2023 = tested on: NCI-H2023
Method in brief: as §1

A-427 = tested on: A-427
Method in brief: as §1

ABC-1 = tested on: ABC-1
Method in brief: as §1

NCI-H838 = tested on: NCI-H838
Method in brief: as §1

Oc1nc(-c2ccc(C(F)(F)F)cc2)nc2c1CSCC2 [XAV939] + Cc1nc(Nc2ncc(C(=O)Nc3c(C)cccc3Cl)s2)cc(N2CCN(CCO)CC2)n1 [Dasatinib] (partner 0.075 µM)
relative viability (NCI-H596; first compound 0.08 µM): 0.584
relative viability (NCI-H596; first compound 0.253 µM): 0.549
relative viability (NCI-H596; first compound 0.8 µM): 0.708
relative viability (NCI-H596; first compound 2.53 µM): 0.563
relative viability (NCI-H727; first compound 0.08 µM): 0.332
relative viability (NCI-H727; first compound 0.253 µM): 0.452
relative viability (NCI-H727; first compound 0.8 µM): 0.442
relative viability (NCI-H727; first compound 2.53 µM): 0.405
relative viability (NCI-H1792; first compound 0.08 µM): 0.877
relative viability (NCI-H1792; first compound 0.253 µM): 0.809
relative viability (NCI-H1792; first compound 0.8 µM): 0.87
relative viability (NCI-H1792; first compound 2.53 µM): 0.725
relative viability (NCI-H2009; first compound 0.08 µM): 0.31
relative viability (NCI-H2009; first compound 0.253 µM): 0.271
relative viability (NCI-H2009; first compound 0.8 µM): 0.205
relative viability (NCI-H2009; first compound 2.53 µM): 0.208
relative viability (NCI-H358; first compound 0.08 µM): 0.16
relative viability (NCI-H358; first compound 0.253 µM): 0.166
relative viability (NCI-H358; first compound 0.8 µM): 0.175
relative viability (NCI-H358; first compound 2.53 µM): 0.172
relative viability (NCI-H2087; first compound 0.08 µM): 1.11
relative viability (NCI-H2087; first compound 0.253 µM): 0.623
relative viability (NCI-H2087; first compound 0.8 µM): 0.891
relative viability (NCI-H2087; first compound 2.53 µM): 0.689
relative viability (NCI-H1651; first compound 0.08 µM): 0.389
relative viability (NCI-H1651; first compound 0.253 µM): 0.366
relative viability (NCI-H1651; first compound 0.8 µM): 0.362
relative viability (NCI-H1651; first compound 2.53 µM): 0.401
relative viability (NCI-H1355; first compound 0.08 µM): 0.569
relative viability (NCI-H1355; first compound 0.253 µM): 0.495
relative viability (NCI-H1355; first compound 0.8 µM): 0.507
relative viability (NCI-H1355; first compound 2.53 µM): 0.356
relative viability (H3255; first compound 0.08 µM): 0.341
relative viability (H3255; first compound 0.253 µM): 0.373
relative viability (H3255; first compound 0.8 µM): 0.313
relative viability (H3255; first compound 2.53 µM): 0.448
relative viability (SW 1573; first compound 0.08 µM): 0.605
relative viability (SW 1573; first compound 0.253 µM): 0.506
relative viability (SW 1573; first compound 0.8 µM): 0.43
relative viability (SW 1573; first compound 2.53 µM): 0.241
relative viability (NCI-H23; first compound 0.08 µM): 0.872
relative viability (NCI-H23; first compound 0.253 µM): 0.7
relative viability (NCI-H23; first compound 0.8 µM): 0.895
relative viability (NCI-H23; first compound 2.53 µM): 0.722
relative viability (SK-MES-1; first compound 0.08 µM): 0.339
relative viability (SK-MES-1; first compound 0.253 µM): 0.344
relative viability (SK-MES-1; first compound 0.8 µM): 0.392
relative viability (SK-MES-1; first compound 2.53 µM): 0.284
relative viability (NCI-H1666; first compound 0.08 µM): 0.921
relative viability (NCI-H1666; first compound 0.253 µM): 0.801
relative viability (NCI-H1666; first compound 0.8 µM): 0.761
relative viability (NCI-H1666; first compound 2.53 µM): 0.744
relative viability (NCI-H1437; first compound 0.08 µM): 0.353
relative viability (NCI-H1437; first compound 0.253 µM): 0.488
relative viability (NCI-H1437; first compound 0.8 µM): 0.416
relative viability (NCI-H1437; first compound 2.53 µM): 0.654
relative viability (NCI-H1793; first compound 0.08 µM): 0.379
relative viability (NCI-H1793; first compound 0.253 µM): 0.339
relative viability (NCI-H1793; first compound 0.8 µM): 0.399
relative viability (NCI-H1793; first compound 2.53 µM): 0.419
relative viability (PC-14; first compound 0.08 µM): 0.288
relative viability (PC-14; first compound 0.253 µM): 0.252
relative viability (PC-14; first compound 0.8 µM): 0.204
relative viability (PC-14; first compound 2.53 µM): 0.148
relative viability (CAL-12T; first compound 0.08 µM): 0.572
relative viability (CAL-12T; first compound 0.253 µM): 0.401
relative viability (CAL-12T; first compound 0.8 µM): 0.308
relative viability (CAL-12T; first compound 2.53 µM): 0.211
relative viability (NCI-H522; first compound 0.08 µM): 0.982
relative viability (NCI-H522; first compound 0.253 µM): 0.812
relative viability (NCI-H522; first compound 0.8 µM): 0.465
relative viability (NCI-H522; first compound 2.53 µM): 0.779
relative viability (UMC-11; first compound 0.08 µM): 0.542
relative viability (UMC-11; first compound 0.253 µM): 0.396
relative viability (UMC-11; first compound 0.8 µM): 0.427
relative viability (UMC-11; first compound 2.53 µM): 0.408
relative viability (NCI-H2023; first compound 0.08 µM): 0.512
relative viability (NCI-H2023; first compound 0.253 µM): 0.397
relative viability (NCI-H2023; first compound 0.8 µM): 0.334
relative viability (NCI-H2023; first compound 2.53 µM): 0.336
relative viability (A-427; first compound 0.08 µM): 0.838
relative viability (A-427; first compound 0.253 µM): 0.677
relative viability (A-427; first compound 0.8 µM): 0.667
relative viability (A-427; first compound 2.53 µM): 0.557
relative viability (ABC-1; first compound 0.08 µM): 0.546
relative viability (ABC-1; first compound 0.253 µM): 0.534
relative viability (ABC-1; first compound 0.8 µM): 0.467
relative viability (ABC-1; first compound 2.53 µM): 0.415
relative viability (NCI-H838; first compound 0.08 µM): 0.217
relative viability (NCI-H838; first compound 0.253 µM): 0.256
relative viability (NCI-H838; first compound 0.8 µM): 0.284
relative viability (NCI-H838; first compound 2.53 µM): 0.212
